Legend:
[1] = target: Bifunctional 3'-5' exonuclease/ATP-dependent helicase WRN (Homo sapiens, UniProt Q14191); assay: ADP-Glo Kinase Assay
Description: ATPase activity was measured using the ADP-Glo Kinase Assay following the manufacturers recommended protocol.

[2] = target: T1, Bifunctional 3'-5' exonuclease/ATP-dependent helicase WRN [480-1251] (UniProt Q14191); assay: Biochemical Activity Assays
T1 construct: 480-1251
Description: The pure fractions were pooled and desalted/buffer exchanged into storage buffer using a HiTrap desalting column. […] First, WRN alone was pre-incubated with DMSO or compound of interest for 15 minutes. To initiate the reaction, ATP, dsDNA substrate, and ssDNA competitor (ssDNA_comp: […]) were added and incubated at room temperature for 20 minutes at which point DNA unwinding activity was monitored by measuring Cy3 fluorescence. After obtaining the reading, the ATPase activity was measured using the ADP-Glo Kinase Assay following the manufacturers recommended protocol. […] Compounds were assayed in a 10-point dose response in duplicate at a 1% DMSO final assay concentration.

Chain of Bifunctional 3'-5' exonuclease/ATP-dependent helicase WRN (Q14191 whole entry): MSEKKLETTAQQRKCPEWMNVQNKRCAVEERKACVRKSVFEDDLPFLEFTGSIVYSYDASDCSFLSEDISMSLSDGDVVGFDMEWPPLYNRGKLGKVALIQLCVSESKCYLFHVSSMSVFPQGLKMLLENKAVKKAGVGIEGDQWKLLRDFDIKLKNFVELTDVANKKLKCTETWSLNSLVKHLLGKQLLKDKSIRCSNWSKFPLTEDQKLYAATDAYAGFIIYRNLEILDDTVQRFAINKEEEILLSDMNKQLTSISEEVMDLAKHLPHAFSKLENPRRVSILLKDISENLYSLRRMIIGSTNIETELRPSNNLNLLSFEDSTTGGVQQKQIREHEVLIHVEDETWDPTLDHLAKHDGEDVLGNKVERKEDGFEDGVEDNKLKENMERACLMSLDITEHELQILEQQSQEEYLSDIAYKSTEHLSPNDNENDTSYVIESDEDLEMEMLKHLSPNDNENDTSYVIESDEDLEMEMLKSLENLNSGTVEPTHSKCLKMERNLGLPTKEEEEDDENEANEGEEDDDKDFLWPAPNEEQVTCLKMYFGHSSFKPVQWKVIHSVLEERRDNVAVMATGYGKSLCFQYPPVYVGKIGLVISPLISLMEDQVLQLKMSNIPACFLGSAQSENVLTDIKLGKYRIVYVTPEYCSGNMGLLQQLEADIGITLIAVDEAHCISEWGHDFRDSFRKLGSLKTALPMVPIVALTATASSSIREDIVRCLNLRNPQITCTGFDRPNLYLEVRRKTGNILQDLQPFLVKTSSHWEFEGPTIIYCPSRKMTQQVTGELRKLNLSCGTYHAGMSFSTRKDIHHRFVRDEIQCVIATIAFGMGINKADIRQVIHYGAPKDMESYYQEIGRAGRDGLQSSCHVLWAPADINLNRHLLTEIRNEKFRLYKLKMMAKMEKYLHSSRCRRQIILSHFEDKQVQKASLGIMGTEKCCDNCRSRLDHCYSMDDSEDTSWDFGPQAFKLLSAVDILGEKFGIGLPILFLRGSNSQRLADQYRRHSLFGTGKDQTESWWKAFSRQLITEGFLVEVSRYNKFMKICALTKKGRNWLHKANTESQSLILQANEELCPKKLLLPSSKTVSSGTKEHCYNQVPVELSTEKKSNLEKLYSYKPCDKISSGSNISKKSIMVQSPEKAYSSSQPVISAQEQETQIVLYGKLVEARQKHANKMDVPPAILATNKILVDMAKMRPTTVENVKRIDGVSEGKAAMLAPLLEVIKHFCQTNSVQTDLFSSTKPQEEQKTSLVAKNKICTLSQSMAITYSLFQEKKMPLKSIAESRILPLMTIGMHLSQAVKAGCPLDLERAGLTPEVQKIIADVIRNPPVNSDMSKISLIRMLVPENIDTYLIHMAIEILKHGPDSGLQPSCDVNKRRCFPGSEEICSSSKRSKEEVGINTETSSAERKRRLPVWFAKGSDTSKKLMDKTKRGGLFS
T1 sequence (Q14191 480-1251): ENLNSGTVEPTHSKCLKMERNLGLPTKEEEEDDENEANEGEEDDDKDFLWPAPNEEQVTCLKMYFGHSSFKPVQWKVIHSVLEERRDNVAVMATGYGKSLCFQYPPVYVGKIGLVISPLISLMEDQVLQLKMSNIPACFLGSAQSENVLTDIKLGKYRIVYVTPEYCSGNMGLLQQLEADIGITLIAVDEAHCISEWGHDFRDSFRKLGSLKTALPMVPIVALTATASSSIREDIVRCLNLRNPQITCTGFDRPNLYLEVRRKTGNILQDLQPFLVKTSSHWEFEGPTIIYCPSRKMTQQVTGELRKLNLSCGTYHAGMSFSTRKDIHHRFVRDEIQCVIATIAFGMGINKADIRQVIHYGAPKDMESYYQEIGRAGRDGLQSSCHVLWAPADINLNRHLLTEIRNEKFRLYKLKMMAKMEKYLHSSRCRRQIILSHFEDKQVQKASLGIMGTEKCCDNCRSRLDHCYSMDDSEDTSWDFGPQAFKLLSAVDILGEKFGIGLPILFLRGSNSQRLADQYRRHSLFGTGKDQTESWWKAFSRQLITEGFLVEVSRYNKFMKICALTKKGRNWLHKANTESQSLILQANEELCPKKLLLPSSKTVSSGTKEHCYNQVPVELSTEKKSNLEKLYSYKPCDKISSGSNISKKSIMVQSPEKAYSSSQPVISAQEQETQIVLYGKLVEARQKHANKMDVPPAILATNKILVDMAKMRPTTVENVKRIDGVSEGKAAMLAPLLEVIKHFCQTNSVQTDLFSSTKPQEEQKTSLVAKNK

SMILES	IC50 [1] [nM]	IC50 [2] [nM]
CCc1c(N2CCN(C(=O)c3ncnc(C)c3O)CC2)c(=O)n2nc(-c3ccc4nc(C)oc4c3)nc2n1CC(=O)Nc1ccc(C(F)(F)F)cc1Cl [WO2025049746, Example 237]	82	84
CCc1c(N2CCN(C(=O)c3ncnc(C)c3O)CC2)c(=O)n2nc(-c3ccc4nn(C)nc4c3)nc2n1CC(=O)Nc1ccc(C(F)(F)F)cc1Cl [WO2025049746, Example 301]	33	35
CCc1c(N2CCN(C(=O)c3nc4c(cc3O)CCCC4)CC2)c(=O)n2nc(-c3ccc4c(c3)COC4)nc2n1CC(=O)Nc1ccc(C(F)(F)F)cc1Cl [WO2025049746, Example 423]	169	150
CCc1c(N2CCN(C(=O)c3ncnc(C)c3O)[C@H]3CC[C@H]32)c(=O)n2nc(-c3ccc4c(c3)COC4(C)C)nc2n1CC(=O)Nc1ccc(C(F)(F)F)cc1Cl [WO2025049746, Example 460]	52	45
CCc1c(N2CCN(C(=O)c3ncnc(C)c3O)CC2)c(=O)n2nc(N(C)C)nc2n1CC(=O)Nc1ccc(C(F)(F)F)cc1C [WO2025049746, Example 77]	62.1	44.3
CCc1c(N2CCN(C(=O)c3ncnc(C)c3O)CC2)c(=O)n2nc(-c3cnc4ccn(C)c4c3)nc2n1CC(=O)Nc1ccc(C(F)(F)F)cc1Cl [WO2025049746, Example 304]	32	29
CCc1c(N2CCN(C(=O)c3ncnc(C)c3O)CC2)c(=O)n2nc(-c3cccc4c3CCCO4)nc2n1CC(=O)Nc1ccc(C(F)(F)F)cc1Cl [WO2025049746, Example 159]	231	82
CCc1c(N2CCN(C(=O)c3nocc3O)CC2)c(=O)n2nc(-c3ccc4c(c3)COC4)nc2n1CC(=O)Nc1ccc(C(F)(F)F)cc1Cl [WO2025049746, Example 446]	20	20
CCc1c(N2CCN(C(=O)c3ncnc(C)c3O)CC2)c(=O)n2nc(C3=CCOCC3)nc2n1CC(=O)Nc1ccc(C(F)(F)F)n(C)c1=O [WO2025049746, Example 367]	29700	8510
CCc1c(N2CCN(C(C)=O)CC2)c(=O)n2nc(C3=CCOCC3)nc2n1CC(=O)Nc1ccc(C(F)(F)F)cc1Cl [WO2025049746, Example 52]	39.4	28.6
CCc1c(N2CCN(C(=O)c3ncnc(C)c3O)CC2)c(=O)n2nc(-c3cnn4c3COCC4)nc2n1CC(=O)Nc1ccc(C(F)(F)F)cc1Cl [WO2025049746, Example 20]	88.6	53.6
CCc1c(N2CCN(C(=O)c3ncnc(C)c3O)CC2)c(=O)n2c(CO)c(-c3ccc4c(c3)COC4)nc2n1CC(=O)Nc1ccc(C(F)(F)F)cc1Cl [WO2025049746, Example 452]	9850	29700
CCc1c(N2CCN(C(=O)c3ncnc(C)c3O)CC2)c(=O)n2nc(-c3ccc4ncccc4c3)nc2n1CC(=O)Nc1ccc(C(F)(F)F)cc1Cl [WO2025049746, Example 264]	23	24
CCc1c(N2CCN(C(=O)c3ncnc(C)c3O)CC2)c(=O)n2nc(N(C)C)nc2n1C(F)(F)C(=O)Nc1ccc(C(F)(F)F)cc1Cl [WO2025049746, Example 401]	59	45
CCc1c(N2CCN(C(=O)c3ncnc(C)c3O)CC2)c(=O)n2nc(-c3ccc4c(c3)CC(=O)N4)nc2n1CC(=O)Nc1ccc(C(F)(F)F)cc1Cl [WO2025049746, Example 325]	25	34
CCc1c(N2CCN(C(=O)c3ncnc(C)c3O)CC2)c(=O)n2nc(-c3ccc4nc(NCC(F)F)oc4c3)nc2n1CC(=O)Nc1ccc(C(F)(F)F)cc1Cl [WO2025049746, Example 303]	42	45
CCc1c(N2CCN(C(=O)c3ncnc(C)c3O)CC2)c(=O)n2nc(-c3cccc4c3OCO4)nc2n1CC(=O)Nc1c(Cl)cc(C(F)(F)F)c2c1CC2 [WO2025049746, Example 385]	96	87
CCc1c(N2CCN(C(=O)C3=CCOCC3)CC2)c(=O)n2nc(-c3ncc(O)cn3)nc2n1CC(=O)Nc1ccc(C(F)(F)F)cc1Cl [WO2025049746, Example 436]	103	50

Further compounds by falling IC50 [1], results first:

IC50 [1] [nM]	IC50 [2] [nM]	SMILES
29700	29700	CCc1c(-c2cc3n(n2)CC(=O)N(C)C3)c(=O)n2nc(C3=CCOCC3)nc2n1CC(=O)Nc1ccc(C(F)(F)F)cc1Cl [WO2025049746, Example 338]
194	70.1	CCc1c(N2CCN(C(=O)c3ncnc(C)c3O)CC2)c(=O)n2nc(C3CC3)nc2n1CC(=O)Nc1ccc(C(F)(F)F)cc1C [WO2025049746, Example 78]
90.9	60.3	CCc1c(N2CCN(C(=O)c3ncnc(C)c3O)CC2)c(=O)n2nc(N3CCC3)nc2n1CC(=O)Nc1ccc(C(F)(F)F)cc1Cl [WO2025049746, Example 28]
57.1	43.9	CCc1c(N2CCN(C(=O)c3cccc4[nH]c(=O)[nH]c34)CC2)c(=O)n2nc(C3=CCOCC3)nc2n1CC(=O)Nc1ccc(C(F)(F)F)cc1Cl [WO2025049746, Example 51]
52	30	CCc1c(N2CCN(C(=O)c3ncnc(C)c3O)CC2)c(=O)n2nc(-c3ccc4c(c3)C(=O)NC4)nc2n1CC(=O)Nc1ccc(C(F)(F)F)cc1Cl [WO2025049746, Example 188]
45	32	CCc1c(N2CCN(C(=O)c3ncnc(C)c3O)CC2)c(=O)n2nc(N3CCC3)nc2n1CC(=O)Nc1ccc(C(F)(F)F)c2c1CC2 [WO2025049746, Example 377]
38	33	CCc1c(N2CCN(C(=O)c3ncnc(C)c3O)CC2)c(=O)n2nc(-c3ccc4c(c3)C[C@H](OC)C4)nc2n1CC(=O)Nc1ccc(C(F)(F)F)cc1Cl [WO2025049746, Example 181]
34	27	CCc1c(N2CCN(C(=O)c3cccc4c3NS(=O)(=O)CC4)CC2)c(=O)n2nc(-c3ccc4c(c3)COC4)nc2n1CC(=O)Nc1ccc(C(F)(F)F)cc1Cl [WO2025049746, Example 425]
27	28	CCc1c(N2CCN(C(=O)c3ncnc(C)c3O)CC2)c(=O)n2nc(-c3ccn4ncc(C)c4c3)nc2n1CC(=O)Nc1ccc(C(F)(F)F)cc1Cl [WO2025049746, Example 272]
26	27	CCc1c(N2CCN(C(=O)c3ncnc(C)c3O)CC2)c(=O)n2nc(-c3cnc4sccc4c3)nc2n1CC(=O)Nc1ccc(C(F)(F)F)cc1Cl [WO2025049746, Example 310]
26	23	CCc1c(N2CCN(C(=O)c3ncnc(C)c3O)CC2)c(=O)n2nc(-c3ccc(C(=O)N4CCCC4)cc3)nc2n1CC(=O)Nc1ccc(C(F)(F)F)cc1Cl [WO2025049746, Example 267]
24	24	CCc1c(N2CCN(C(=O)c3ncnc(C)c3O)CC2)c(=O)n2nc(-c3ccc4ccnn4c3)nc2n1CC(=O)Nc1ccc(C(F)(F)F)cc1Cl [WO2025049746, Example 253]
23	24	CCc1c(N2CCN(C(=O)c3ncnc(C)c3O)CC2)c(=O)n2nc(-c3ccc4[nH]c(=O)ccc4c3)nc2n1CC(=O)Nc1ccc(C(F)(F)F)cc1Cl [WO2025049746, Example 318]
18	19	CCc1c(N2CCN(C(=O)c3ncnc(C)c3O)CC2)c(=O)n2nc(-c3ccn4nccc4c3F)nc2n1CC(=O)Nc1ccc(C(F)(F)F)cc1Cl [WO2025049746, Example 241]

— BindingDB's records for patent WO2025049746 (Eikon Therapeutics, 2025)
